{"source": "patent US20120193574A1", "about": "“Method Of Controlling Crystallization” (University of Durham, priority 2009, published 2012)", "molecules": {"B1": {"name": "egg white albumin: Albumin is used to exemplify how protein crystallisation can be achieved (protein, UniProt P01012 2-386, looked up)", "Ovalbumin": "GSIGAASMEFCFDVFKELKVHHANENIFYCPIAIMSALAMVYLGAKDSTRTQINKVVRFDKLPGFGDSIEAQCGTSVNVHSSLRDILNQITKPNDVYSFSLASRLYAEERYPILPEYLQCVKELYRGGLEPINFQTAADQARELINSWVESQTNGIIRNVLQPSSVDSQTAMVLVNAIVFKGLWEKAFKDEDTQAMPFRVTEQESKPVQMMYQIGLFRVASMASEKMKILELPFASGTMSMLVLLPDEVSGLEQLESIINFEKLTEWTSSNVMEERKIKVYLPRMKMEEKYNLTSVLMAMGITDVFSSSANLSGISSAESLKISQAVHAAHAEINEAGREVVGSAEAGVDAASVSEEFRADHPFLFCIKHIATNAVLFFGRCVSP"}}, "key": {"[1]": {"test": "Crystallisation in microemulsions under confinement; polymorph of the crystals by FTIR, TEM electron diffraction or Raman", "format": "physicochemical", "protocol": "Nanocrystals within the microemulsions were analysed by placing drops of the microemulsion onto TEM holey carbon grids and placing in a TEM. Nanocrystal images were taken and selected area electron diffraction patterns from the nanocrystals were captured, from which their polymorphic form could be determined.\nCrystals/crystal aggregates were typically extracted via filtration. X-ray diffraction and/or FTIR and/or Raman microscopy techniques were used to determine the polymorph(s) of the extracted crystals/crystal aggregates.\nA glycine microemulsion was prepared at ambient temperature containing 4.2 g heptane, 2.8 g of a 1:1 mass ratio of Span 80 and Brij 30, and 0.25 g of glycine solution containing 4% by mass of glycine in water. The microemulsion was shaken by hand to ensure homogeneous mixing. To this was added a microemulsion containing 1.8 g heptane, 2.8 g of a 1:1 mass ratio of Span 80 and Brij 30, 1 g of methanol and 0.25 g of water, with subsequent shaking to ensure homogeneous mixing. The resulting supersaturation ratio (c/csat) was 2.3. The resultant microemulsion was left to stand for 3 weeks at 25° C. […]\nROY microemulsions were prepared at ambient temperatures containing 10% by mass of Igepal CA720 in water and 30 μl/g or 60 μl/g of a ROY in toluene solution containing between 8% to 10% by mass of ROY. […] The crystals/crystal aggregates were extracted by filtration. […]"}, "[2]": {"conditions": "cited from earlier work"}, "[3]": {"test": "Supersaturated solutions stabilised due to confinement in microemulsions; visual inspection or optical microscopy on standing", "format": "physicochemical", "protocol": "Glycine microemulsions prepared at ambient temperature containing 4.2 g heptane, 2.8 g of a 1:1 mass ratio of Span 80 and Brij 30, and 0.25 g of glycine solution containing 3-3.5% by mass of glycine in water. The microemulsion was shaken by hand to ensure homogeneous mixing. To this was added a microemulsion containing 1.8 g heptane, 2.8 g of a 1:1 mass ratio of Span 80 and Brij 30, 1 g of methanol and 0.25 g of water, with subsequent shaking to ensure homogeneous mixing. The resulting supersaturation ratio (c/csat) was at 1.7-2.0, i.e. sufficient to cause fast crystallisation of metastable forms in an unconfined system.\nGlycine microemulsions prepared at 50° C. containing hexadecane, 15% by mass of a 1:1 mass ratio of Span 20 and Span 80, 1% by mass of ethanol and 1% by mass of a glycine aqueous solution containing 2.5% by mass of glycine. The microemulsion was placed in a water bath at 50° C. and cooled to 26° C. over 24 hours. The resulting supersaturation ratio (c/csat) was at least 4, i.e. sufficient to cause rapid crystallisation in an unconfined system.\nROY microemulsions prepared at ambient temperatures containing 10% by mass of Igepal CA720 in water, 30 μl/g of a toluene solution containing 6% by mass of ROY and 12 μl/g of heptane. The resulting supersaturation ratio (c/csat) was at least 4, i.e. sufficient to cause crystallisation typically within a few hours in an unconfined system.\nThe mefenamic acid-in-DMF bulk solutions and microemulsions, were prepared at elevated temperature (˜50-60° C.). The microemulsion consisted of 3 g of AOT solution containing 3% by mass of AOT in heptane to which was added 20 μl of a mefenamic acid solution containing 70-75 mg of mefenamic acid per ml DMF. The microemulsion was cooled from 50 to 8° C. over 12 hours and then left at 8° C. The resulting supersaturation ratio (c/csat) was 3.9-4.1, i.e. sufficient to cause crystallisation of metastable form II typically within a few hours in an unconfined system."}}, "note": "Entries after “also recorded” stand apart in the source; their conditions may differ."}
{"molecule": "NCC(=O)O", "note": "[glycine]", "values": [{"measurement": "resulting supersaturation ratio (c/csat)", "setting": "[1]; Example 1: 4% by mass glycine solution in heptane/Span 80/Brij 30 microemulsion plus methanol antisolvent microemulsion", "value": 2.3}, {"measurement": "polymorph of extracted crystals (FTIR)", "setting": "[1]; Example 1: methanol antisolvent microemulsion added, c/csat 2.3, 3 weeks at 25° C.", "value": "predominantly of γ-glycine; also recorded: stable γ-polymorph of glycine with virtually no α-polymorph"}, {"measurement": "polymorph of nanocrystals/nanocrystal aggregates (TEM)", "setting": "[1]; Example 2: hexadecane/Span 20/Span 80 microemulsion, 7% glycine solution, cooled 50 to 25° C. over 24 hours, after 7 days", "value": "predominantly of γ-glycine; also recorded: hexagonal γ-polymorph of glycine"}, {"measurement": "polymorph of crystals/crystal aggregates (FTIR)", "setting": "[1]; Example 3: heptane/Span 80/Brij 30 microemulsion, 4% glycine solution, vapour diffusion of methanol, ambient temperature", "value": "predominantly the γ-polymorph of glycine with some α-polymorph"}, {"measurement": "temperatures at which the γ-phase is the most stable ambient pressure form", "setting": "[2]; ambient pressure", "value": "< 165", "unit": "°C"}, {"measurement": "energy of γ-phase below the α-phase", "setting": "[2]; ambient temperatures", "value": "~0.0478", "unit": "kcal/mol"}, {"measurement": "energy of γ-phase below the β-phase", "setting": "[2]; ambient temperatures", "value": "~0.143", "unit": "kcal/mol"}, {"measurement": "stability of γ-polymorph over α-polymorph in the bulk phases", "setting": "[2]; bulk phases", "value": "~0.048", "unit": "kcal/mol"}, {"measurement": "resulting supersaturation ratio (c/csat)", "setting": "[3]; 2.5% by mass glycine solution, hexadecane/Span 20/Span 80 microemulsion cooled 50 to 26° C. over 24 hours", "value": "at least 4"}, {"measurement": "crystals by visual inspection or optical microscopy on standing", "setting": "[3]; 2.5% glycine solution, hexadecane/Span 20/Span 80 microemulsion cooled to 26° C., after 1 month", "value": "No crystals were observed"}, {"measurement": "resulting supersaturation ratio (c/csat)", "setting": "[3]; 3-3.5% by mass glycine solution, heptane/Span 80/Brij 30 microemulsion plus methanol microemulsion", "value": "1.7-2.0"}, {"measurement": "crystals by visual inspection or optical microscopy on standing", "setting": "[3]; microemulsion from 3% by mass glycine in water, after 3 months", "value": "No crystals were observed"}, {"measurement": "crystals by visual inspection or optical microscopy on standing", "setting": "[3]; microemulsion from 3.5% glycine in water, after 3 months", "value": "only a few μm sized crystals apparent"}]}
{"molecule": "Cc1cc(C#N)c(Nc2ccccc2[N+](=O)[O-])s1", "note": "[ROY, 5-Methyl-2-[(2-nitrophenyl)amino]-3-thiophenecarbonitrile]", "values": [{"measurement": "polymorph of crystals/crystal aggregates (FTIR)", "setting": "[1]; Example 5: Igepal CA720/water microemulsion, 8% to 10% ROY in toluene, dropwise heptane antisolvent, ambient", "value": "yellow prism polymorph of ROY"}, {"measurement": "energy of yellow prism form below the orange needle and orange prism forms", "setting": "[2]; ambient temperatures", "value": "~0.0717", "unit": "kcal/mol"}, {"measurement": "crystals by visual inspection or optical microscopy on standing", "setting": "[3]; 6% ROY in toluene, Igepal CA720/water microemulsion with heptane, after 1 month", "value": "No crystals were observed"}, {"measurement": "resulting supersaturation ratio (c/csat)", "setting": "[3]; 6% by mass ROY in toluene, 30 μl/g, Igepal CA720/water microemulsion, 12 μl/g heptane", "value": "at least 4"}]}
{"molecule": "Cc1cccc(Nc2ccccc2C(=O)O)c1C", "note": "[mefenamic acid]", "values": [{"measurement": "resulting supersaturation ratio (c/csat)", "setting": "[1]; Example 4: 80-100 mg mefenamic acid per ml DMF in AOT/heptane microemulsion cooled from 50 to 8° C.", "value": "4.4-5.5"}, {"measurement": "polymorph of crystals (Raman)", "setting": "[1]; Example 4: DMF-in-heptane/AOT microemulsion cooled from 50 to 8° C. over 12 hours", "value": "predominantly of Form I; also recorded: characteristic Form I peaks"}, {"measurement": "polymorph from crystallization in bulk DMF", "setting": "[2]; irrespective of rate of crystallization or crystallization temperature", "value": "only produces the metastable form II"}, {"measurement": "resulting supersaturation ratio (c/csat)", "setting": "[3]; 70-75 mg mefenamic acid per ml DMF in AOT/heptane microemulsion cooled from 50 to 8° C.", "value": "3.9-4.1"}, {"measurement": "crystals by visual inspection or optical microscopy on standing", "setting": "[3]; 70-75 mg/ml mefenamic acid in DMF, AOT/heptane microemulsion at 8° C., after 1 month", "value": "No crystals were observed"}]}
{"molecule": "B1", "values": [{"measurement": "crystallisation observed by optical microscopy", "setting": "[1]; Example 6: isooctane/AOT microemulsion, 5 mg albumin per ml water, methanol microemulsion added, after 48 hours", "value": "crystals observed"}]}
